Data from PMC9513972, “Carboxypeptidase G and pterin deaminase metabolic pathways degrade folic acid in Variovorax sp. F1” (BMC Microbiology, 2022).

System: T1, recombinant PDA (rPDA) from Variovorax sp. F1
T1 construct: full-length gene product, 399 residues; 45 kDa band; pET28a NdeI/XhoI (N-terminal His tag), E. coli BL21 (DE3), HisTrap
Test: HPLC initial velocity, Michaelis-Menten fit
Assay type: biochemical
Conditions: 50 mM Tris-HCl pH 7.5, 30 °C
Excerpt: HPLC initial velocity, Michaelis-Menten fit on recombinant PDA (rPDA) from Variovorax sp.

Km (deamination to deaminofolic acid)	Km (deamination to deaminopteroic acid)	SMILES
280 ± 60 µM		Nc1nc2ncc(CNc3ccc(C(=O)N[C@@H](CCC(=O)O)C(=O)O)cc3)nc2c(=O)[nH]1 [folic acid]
	1500 ± 600 µM	Nc1nc2ncc(CNc3ccc(C(=O)O)cc3)nc2c(=O)[nH]1 [pteroic acid]
